Measured values reported in US10851075B2, “Stat3 pathway inhibitors and cancer stem cell inhibitors” (Sumitomo Dainippon Pharma Oncology, Inc., priority 2007, dated 2020).
Entries after “also recorded” stand apart in the source; their conditions may differ. Where two headings read alike, the source gives them in different places.

Tests used:
[1] = target: T1, Stat3 DNA-binding activity (Homo sapiens, UniProt P40763); experiment: Stat3 DNA binding assay (EMSA), HeLa nuclear extract; format: biochemical; conditions: for inhibition % 1 × MTT IC50: compound at 1 × MTT IC50, untreated Stat3 retarded band set as 100; for inhibition % 3 × MTT IC50: compound at 3 × MTT IC50, untreated Stat3 retarded band set as 100
T1 construct: endogenous in cells; host or cells: HeLa cells (nuclear extract)
T1 sequence (P40763 whole entry): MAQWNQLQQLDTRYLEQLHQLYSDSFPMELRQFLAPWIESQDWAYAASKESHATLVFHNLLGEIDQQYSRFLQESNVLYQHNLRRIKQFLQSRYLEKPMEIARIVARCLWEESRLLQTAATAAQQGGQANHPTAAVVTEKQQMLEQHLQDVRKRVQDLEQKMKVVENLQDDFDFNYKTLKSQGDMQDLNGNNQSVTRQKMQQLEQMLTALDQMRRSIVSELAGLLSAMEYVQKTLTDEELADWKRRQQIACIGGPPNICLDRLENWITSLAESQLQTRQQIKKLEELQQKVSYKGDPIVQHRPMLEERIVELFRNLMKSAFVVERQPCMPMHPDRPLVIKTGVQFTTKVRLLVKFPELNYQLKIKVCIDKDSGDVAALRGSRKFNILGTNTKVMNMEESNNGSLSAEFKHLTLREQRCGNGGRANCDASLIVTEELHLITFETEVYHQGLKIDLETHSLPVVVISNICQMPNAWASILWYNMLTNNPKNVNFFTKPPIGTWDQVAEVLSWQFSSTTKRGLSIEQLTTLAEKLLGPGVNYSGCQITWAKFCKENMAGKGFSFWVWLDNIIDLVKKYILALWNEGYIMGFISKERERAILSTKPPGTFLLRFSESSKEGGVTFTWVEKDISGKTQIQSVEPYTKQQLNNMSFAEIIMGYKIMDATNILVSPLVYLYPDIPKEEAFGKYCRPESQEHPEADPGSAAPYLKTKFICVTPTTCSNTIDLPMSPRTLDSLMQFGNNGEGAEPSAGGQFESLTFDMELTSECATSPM
Procedure: STAT3 DNA Binding Assay: Electrophoretic mobility shift assay (EMSA) was performed as described by the manufacturer (Li-Cor Biosciences, Lincoln, Nebr.). Briefly, nuclear extracts were made from HeLa cells using the NucBuster Protein Extraction Kit as described by the manufacturer (EMD Biosciences, San Diego, Calif.). 5 μg of nuclear extract was pre-incubated with the indicated dose of indicated compound for 30 minutes prior to a 15-minute incubation with the IR700-labeled consensus Stat3 oligonucleotide. Samples were then electrophoresed on a polyacrylamide gel and directly scanned using the Odyssey infrared imaging system (Li-Cor Biosciences). For the enzyme-linked immunosorbent assay (ELISA), 5 μg of nuclear extract was preincubated with indicated concentration of indicated compound for 30 minutes prior to the addition of biotinylated oligo (5′-Biotin-[…]-3′). Stat3-DNA complexes were then captured on streptavidin coated 96 well plates (Pierce, Rockford, Ill.). Bound complexes were then incubated with Stat3 polyclonal antibody (Santa Cruz Biotechnology, Santa Cruz, Calif.) followed by anti-rabbit HRP conjugated secondary antibody (GE Healthcare, Pittsburgh, Pa.). Bound antibody was then visualized by addition of TMB substrate (Pierce) and absorbance measured at 450 nm.
Inhibition of Stat3 DNA-binding activity. Nuclear extracts from HeLa cells, which contain constitutively activated Stat3 as detected by phoshporylation at the tyrosine 705 residue, were used to perform Stat3 EMSAs to monitor Stat3 DNA binding activity. Nuclear extracts were incubated with indicated compound prior to incubation with IR700-labeled Stat3 consensus oligonucleotide. Binding of Stat3 to the oligonucleotide was monitored by gel electrophoresis and detection using a LiCor Odyssey infrared scanner.
To calculate the inhibition %, the density of the untreated Stat3 retarded band (control) was set as 100 and the inhibition % was the difference between the control and the relative DNA binding activity of the drug-treated samples.

DU145 cells = experiment: MTT cell viability, DU145; format: cell-based; conditions: Homo sapiens, DU-145, MTT at 24 hours
Source text: (§1) Cell Culture: HeLa, DU145, H1299, DLD1, SW480, A549, MCF7, LN18, HCT116, HepG2, Paca2, Panel, LNcap, FaDu, HT29, and PC3 cells (ATCC, Manassas, Va.) were maintained in Dulbecco's Modified Eagle Medium (DMEM) (Invitrogen, Carlsbad, Calif.) supplemented with 10% fetal bovine serum (MS) (Gemini Bio-Products, West Sacramento, Calif.) and 5% penicillin/streptomycin/amphotercin B (Invitrogen).
(§2) Cell Viability Determination: For 3-(4,5 dimethylthiazol-2-yl)-2,5-diphenyltetrazolium (MTT) (Sigma-Aldrich, St. Louis, Mo.) analysis, cells were plated in 96 well plates at 10,000 cells per well. 24 hours after plating, compound was added to cells at indicated doses. 22 hours following compound addition, MTT was added to each well (0.5 mg/ml, final concentration) and plates were incubated for an additional 2 hours at 37° C., Medium was then aspirated and the formazan product was solubilized in 100 μl of isopropyl alcohol. The absorbance of each well was measured at 570 nm using a microplate reader.
(§3) Identification of compounds that are apoptotic to a broad spectrum of cancer cells in vitro. Cells plated in 96 well plates and treated with indicated compounds were subjected to MTT analysis at 24 hours following compound treatment to determine cell viability.

HeLa cells = experiment: MTT cell viability, HeLa; format: cell-based; conditions: Homo sapiens, MTT at 24 hours
Source text: as §1, §2, §3

CD44^high FaDu cells = experiment: Anti-CSC MTT assay, CD44high FaDu cells; format: cell-based; conditions: Homo sapiens, 48 h
Procedure: as §2
CD44^high cells were isolated by FACS according to the methods described in Ponti et al., with slight modification. Briefly, after trypsinization and recovery of cells for 30 minutes at 37° C. in growth media, cells were pelleted at 400×g and were resuspended in PBS with 2% FBS and 1 mM EDTA at 1×10^6 cells/mL. Cells were then incubated on ice with a 1:100 dilution of CD44-FITC (BD Biosicences, San Diego, Calif.) for 15 minutes. Alternatively, CD24-PE (BD Bioscences, San Diego, Calif.) (1:100) was utilized for negative selection. After washing three times, cells were resuspended at 2×10^6/mL and passed through a […] mesh before sorting
(§4) In order to test compounds for anti-CSC activity, freshly isolated CSCs (SW480 Hoechst SP cells or CD44^high FaDu cells) were exposed to a dose range (30-0.117 μM) of compound for 48 h before examining cell viability by MTT assay. IC50s were estimated by plotting the percentage of surviving cells. As shown in Table 7 and Table 8, the compounds of present invention can target cancer stem cells.

CD44^low FaDu cells = experiment: Anti-CSC MTT assay, CD44low FaDu cells; format: cell-based; conditions: Homo sapiens, 48 h
H1299 cells = experiment: MTT cell viability, H1299; format: cell-based; conditions: Homo sapiens, NCI-H1299, MTT at 24 hours
Source text: as §1, §2, §3

SW480 Hoechst SP cells = experiment: Anti-CSC MTT assay, SW480 Hoechst side population (SP) cells; format: cell-based; conditions: Homo sapiens, 48 h
Procedure: as §2
(§5) Hoechst Side Population: To identify and isolate side population (SP) and non-SP fractions, SW480 cells were removed from the culture dish with trypsin and EDTA, pelleted by centrifugation, washed with phosphate-buffered saline (PBS), and resuspended at 37° C. in Dulbecco's modified Eagle's medium (DMEM) containing 2% FBS and 1 rnM HEPES. The cells were then labeled with Hoechst 33342 (Invitrogen) at a concentration of 5 μg/mL. The labeled cells were incubated for 120 minutes at 37° C., either alone or with 50 μM verapamil (Sigma-Aldrich, St. Louis). After staining, the cells were suspended in Hanks' balanced saline solution (MISS; Invitrogen) containing 2% FBS and 1 mM HEPES, passed a through 40 μm mesh filter, and maintained at 4° C. until flow cytometry analysis. The Hoechst dye was excited at 350 nm, and its fluorescence was measured at two wavelengths using a 450 DF10 (450/20 nm band-pass filter) and a 675LP (675 nm long-pass edge filter) optical filter. The gating on forward and side scatter was not stringent, and only debris was excluded.
as §4

SW480 NSP cells = experiment: Anti-CSC MTT assay, SW480 non-SP (NSP) cells; format: cell-based; conditions: Homo sapiens, 48 h
Procedure: as §2, §5, §4

MCF7 cells = experiment: MTT cell viability, MCF7; format: cell-based; conditions: Homo sapiens; MCF7, Breast; MTT at 24 hours; Table 3
Source text: as §1, §2, §3

DLD1 cells = experiment: MTT cell viability, DLD1; format: cell-based; conditions: Homo sapiens, DLD-1; DLD1, Colon; MTT at 24 hours; Table 3
Source text: as §1, §2, §3

LNCap cells = experiment: MTT cell viability, LNCap; format: cell-based; conditions: Homo sapiens, Prostate, MTT at 24 hours, Table 3
Source text: as §1, §2, §3

HT29 cells = experiment: MTT cell viability, HT29; format: cell-based; conditions: Homo sapiens, HT-29; HT29, Colon; MTT at 24 hours; Table 3
Source text: as §1, §2, §3

HCT116 cells = experiment: MTT cell viability, HCT116; format: cell-based; conditions: Homo sapiens, HCT-116; HCT116, Colon; MTT at 24 hours; Table 3
Source text: as §1, §2, §3

HepG2 cells = experiment: MTT cell viability, HepG2; format: cell-based; conditions: Homo sapiens; HepG2, Liver; MTT at 24 hours; Table 3
Source text: as §1, §2, §3

Panc1 cells = experiment: MTT cell viability, Panc1; format: cell-based; conditions: Homo sapiens, PANC-1; Panc1, Pancreas; MTT at 24 hours; Table 3
Source text: as §1, §2, §3

SW480 cells = experiment: MTT cell viability, SW480; format: cell-based; conditions: Homo sapiens; SW480, Colon; MTT at 24 hours; Table 3
Source text: as §1, §2, §3

FaDu cells = experiment: MTT cell viability, FaDu; format: cell-based; conditions: Homo sapiens, MTT at 24 hours
Source text: as §1, §2, §3

A549 cells = experiment: MTT cell viability, A549; format: cell-based; conditions: Homo sapiens; A549, Lung; MTT at 24 hours following compound treatment; Table 3
Source text: as §1, §2, §3

Paca2 cells = experiment: MTT cell viability, Paca2; format: cell-based; conditions: PaCa-2; Paca2, Pancreas; MTT at 24 hours; Table 3
Source text: as §1, §2, §3

PC3 cells = experiment: MTT cell viability, PC3; format: cell-based; conditions: Homo sapiens, PC-3; PC3, Prostate; MTT at 24 hours; Table 3
Source text: as §1, §2, §3

[2] = tested on: Stat3 transcription activity; experiment: Stat3-luciferase (Stat3-Luc) reporter assay in HeLa cells, OSM stimulated; format: cell-based; conditions: Homo sapiens, compound 30 minutes before 25 ng/ml oncostatin M, 6 hours, read-out: IC50 in Stat3-Luc assays
Procedure: Luciferase Reporter Assay: HeLa Cells were co-transfected with Stat3-luciferase (Stat3-Luc) reporter vector (Panomics, Fremont, Calif.) and Renilla luciferase (Promega, Madison, Wis.) using Lipofectamine 2000 as described by the manufacturer (Invitrogen). Following transfection, cells were maintained in medium containing 0.5% FBS for 24 hours. Cells were then treated with the indicated compound for 30 minutes prior to the addition of 25 ng/ml oncostatin M (OSM) (R&D Systems, Minneapolis, Minn.) to the medium. 6 hours following OSM addition, cells were harvested and levels of firefly and renilla luciferase were measured using the Dual-Glo Luciferase Assay System as described by the manufacturer (Promega).
Inhibition of Stat3 transcription activity. Compounds were tested for their ability to inhibit Stat3 transcription activation activity in cells using a Stat3-luciferase (Stat3-luc) reporter construct. Cells transfected with Stat3-luc were cultured in reduced serum medium prior to addition of indicated compound for 30 minutes. Cells were then stimulated with 25 ng/ml oncostatin (OSM) for 6 hours followed by detection of Stat3-luc reporter activity.

[3] = DU145, Table 4, read-out: IC50 (μM) DU145
[4] = Hela, Table 4, read-out: IC50 (μM) Hela
[5] = H1299, Table 4, read-out: IC50 (μM) H1299
[6] = DU145, Prostate, Table 3, read-out: IC50
[7] = HeLa, Cervix, Table 3, read-out: IC50
[8] = H1299, Lung, Table 3, read-out: IC50
[9] = Table 4, read-out: IC50 (μM) FaDu

Row | inhibition % 1 × MTT IC50 [1] | inhibition % 3 × MTT IC50 [1] | IC50 (DU145 cells; [3]) | IC50 (HeLa cells; [4]) | IC50 (H1299 cells; [5]) | IC50 (SW480 Hoechst SP cells) | IC50 (SW480 NSP cells) | IC50 (MCF7 cells) | IC50 (DLD1 cells) | IC50 (HT29 cells) | IC50 (HCT116 cells) | IC50 (DU145 cells; [6]) | IC50 (HeLa cells; [7]) | IC50 (H1299 cells; [8]) | IC50 (Panc1 cells) | IC50 (SW480 cells) | IC50 (A549 cells) | Compound | IC50 (CD44^high FaDu cells) | IC50 (CD44^low FaDu cells) | IC50 (Paca2 cells) | further results
1 | 50% | 46% | 2.65 µM | 4.56 µM | – | – | – | – | – | – | – | – | – | – | – | – | – | C=Cc1cc2c(o1)C(=O)c1cc(F)ccc1C2=O [Compound 202] | 2.4 µM | 2.25 µM | – | –
2 | 6% | 25% | 4.9 µM | 7.8 µM | 7.2 µM | 2.06 µM | 1.29 µM | – | – | – | – | – | – | – | – | – | – | O=C1c2ccccc2C(=O)c2oc(C(O)c3ccccc3)cc21 (centres unmarked) [Compound 302] | 0.68 µM | 3.68 µM | – | –
3 | 25% | 55% | 1.84 µM | 1.67 µM | – | – | – | – | – | – | – | – | – | – | – | – | – | CC(O)c1cc2c(o1)C(=O)c1cc(F)ccc1C2=O (centres unmarked) [Compound 304] | 2.41 µM | 2.49 µM | – | –
4 | – | – | 0.116 µM | 0.428 µM | 0.234 µM | 0.34 µM | 0.33 µM | 460 nM | 330 nM | 1270 nM | 580 nM | 0.12 µM | 0.43 µM | 0.23 µM | 1700 nM | 320 nM | 950 nM | CC(=O)c1cc2c(o1)C(=O)c1ccccc1C2=O [Compound 401] | – | – | 110 nM | IC50 (LNCap cells): 630 nM; inhibition of Stat3 DNA binding (in words) ([1]; HeLa nuclear extract, FIG. 6A/6B): Dose dependent inhibition of Stat3 DNA binding; also recorded: inhibits Stat3 DNA-binding activity; IC50 (HepG2 cells): 250 nM; IC50 (FaDu cells; Head and Neck, Table 3, read-out: IC50): 0.39 µM; IC50 (FaDu cells; [9]): 0.39 µM; IC50 (PC3 cells): 2370 nM
5 | – | – | 0.327 µM | 1.69 µM | 0.524 µM | – | – | 1150 nM | 1110 nM | 4640 nM | 2020 nM | 0.33 µM | 1.69 µM | 0.52 µM | 3690 nM | 1310 nM | 3160 nM | O=C(c1ccccc1)c1cc2c(o1)C(=O)c1ccccc1C2=O [Compound 412] | – | – | 640 nM | IC50 [2]: ~750 nM; IC50 (PC3 cells): 4450 nM
6 | 39% | 63% | 0.164 µM | 0.488 µM | 0.317 µM | 0.34 µM | 0.33 µM | 460 nM | 640 nM | 1830 nM | 610 nM | 0.18 µM | 0.8 µM | 0.34 µM | 1540 nM | 760 nM | 1060 nM | CC(=O)c1cc2c(o1)C(=O)c1cc(F)ccc1C2=O [Compound 418] | – | – | 210 nM | IC50 (PC3 cells): 3040 nM
7 | 47% | 63% | – | – | – | 0.59 µM | 0.51 µM | – | – | – | – | – | – | – | – | – | – | CC(=O)c1oc2c(c1CBr)C(=O)c1ccccc1C2=O [Compound 420] | – | – | – | IC50 (FaDu cells; [9]): 3.5 µM
